Laboratory results from patent publication US11220534B2, “Treatment of neurological diseases” (Lancaster University Business Enterprises Limited, priority 2016, dated 2022).
Where no end group is shown, it is not given here. [ ]: non-standard residue; d: D form. Aib = CC(C)(N)C(=O)O

Experiments:
APP/PS1 mice [1] = experiment: In vivo hippocampal measurements of L-LTP in AD mice; details: N=6 per group
Description: Materials and methods in Example 2 are the same as Example 1 except when stated. Reagents used in Example 2 only include antibodies to p-PI3Kp85, PI3Kp85, p-Akt (ser473), Akt, p-GSK3β ([…]), and GSK3β from Abcam, Inc. Cambridge, UK. The antibody to p-tau (AT8) from Thermo Scientific USA. Mouse Anti-β-actin, Anti-Rabbit IgG, Anti-mouse IgG, CY3-Anti-mouse IgG, RIPA Lysate, BCA Protein Assay Kit, DAPI staining solution and Anti-fluorescence decay agent from Boster (Wuhan, China). Mice were anesthetized with urethane (Sigma, UK, 1.5 g/kg, i.p.) and placed in a stereotaxic apparatus (RWD Life Science, China) for L-LTP recording. Cut off the scalp and expose the skull, small holes were drilled on one side of the skull (2.0 mm posterior to bregma and 1.5 mm lateral to the midline). […] Baseline fEPSPs were elicited by test stimuli at an interval of 30 seconds and 30 minutes fEPSPs were recorded to observe whether the underlying synaptic transmission is affected. […] The change in PPF ratio, calculated by dividing the slope of the second fEPSP by the slope of the first fEPSP, is viewed to be related with the changes in neurotransmitter release from presynaptic terminals. […] The fEPSPs were recorded for 180 minutes after HFS. All events were recorded by a biological signal processing system (Chengdu Instruments Ltd, China). […]

APP/PS1 mice [2] = experiment: Reversal Morris water maze test; format: in vivo
Description: Materials and methods in Example 2 are the same as Example 1 except when stated. Reagents used in Example 2 only include antibodies to p-PI3Kp85, PI3Kp85, p-Akt (ser473), Akt, p-GSK3β (Y216), and GSK3β from Abcam, Inc. Cambridge, UK. The antibody to p-tau (AT8) from Thermo Scientific USA. Mouse Anti-β-actin, Anti-Rabbit IgG, Anti-mouse IgG, CY3-Anti-mouse IgG, RIPA Lysate, BCA Protein Assay Kit, DAPI staining solution and Anti-fluorescence decay agent from Boster (Wuhan, China).
Classical Morris water maze (MWM) test was used to investigate spatial reference memory of mouse. The water maze mainly included a stainless steel pool and a platform in the pool for escape. There were several landmarks fixed to the walls of the water maze. The pool was filled with tap water at 22±2° C. The first phase was acquisition trial phase which was consisted of five training days (days 1-5) and four trials each day. The pool (diameter, 120 cm; high, 50 cm) was divided into four quadrants and the escape platform (diameter, 12 cm) hidden 1 cm beneath the water surface was placed in the center of the first quadrant. […] The escape latencies were recorded by Ethovision 3.0 software system (Noldus Information Technology, the Netherlands). […] The percentage of swimming time in target quadrant (the first quadrant) and frequency of platform crossing were recorded. […] Swimming time to target was recorded.

Substance: YXEGTFTSDYSIYLDKQAAXEFVNWLLAGGPSSGAPPPSKRRQRRKKRGY-NH2 (Y[Aib]EGTFTSDYSIYLDKQAA[Aib]EFVNWLLAGGPSSGAPPPSKRRQRRKKRGY-NH2) [DA5, No. 12; X=aminoisobutyric acid]
- levels of L-LTP post neuronal stimuli (APP/PS1 mice [1]; APP/PS1 mice, FIG. 9b): maintained high levels of L-LTP post neuronal stimuli
- depression of L-LTP in the hippocampus (APP/PS1 mice [1]; APP/PS1 transgenic mice, pre-treatment, FIG. 9a): able to reverse the depression of L-LTP
- probe test, recall of a change in escape route (reverse Morris water maze) (APP/PS1 mice [2]; APP/PS1 mice vs APP/PS1-saline, FIG. 8c, 8d): recalled a change in escape route to a greater extent than APP/PS1-saline mice
- cognitive flexibility and ability to relearn (reverse Morris water maze) (APP/PS1 mice [2]; APP/PS1 mice, FIG. 8, N=8-14 per group): protects APP/PS1 mice from decreased cognitive flexibility and restores their ability to relearn
